Results on 46 compounds are retold here after US11286268B1, “EIF4E-inhibiting compounds and methods” (EFFECTOR THERAPEUTICS, INC., priority 2019, dated 2022).

The target in the experiment is recombinant eIF4E (Homo sapiens (Human), UniProt P06730). Nature of the experiment: Fluorescence polarization competition assay for eIF4E binding potency. The method, boiled down:
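FP readout; IC50 fit from 8-point, 3-fold series. 75 nM eIF4E + 20 nM ATTO-550-labelled m7GDP probe, Tris pH 7.5/NaCl/DTT/Tween buffer, 1% DMSO final. 30 min RT equilibration, light-protected.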
Background: In fluorescence polarisation assays a small probe gives low polarisation when free and higher when bound to something large.

The mark [1] stands for this setting: fluorescence polarization competition, 75 nM recombinant eIF4E, 20 nM EDA-m7GDP-ATTO-550, IC50 class, read-out: elF4E FP.
Where [2] appears, read: inhibition of eIF4E/EDA-m7GDP-ATTO-550 binding by 50%, Table 4B calculated values, read-out: IC50.
Setting [3] is: inhibition of eIF4E/EDA-m7GDP-ATTO-550 binding, calculated IC50 values, Table 4B, read-out: IC50.

Read-outs that look alike come from different tables or passages of the source.

Sequence of recombinant eIF4E (P06730 whole entry): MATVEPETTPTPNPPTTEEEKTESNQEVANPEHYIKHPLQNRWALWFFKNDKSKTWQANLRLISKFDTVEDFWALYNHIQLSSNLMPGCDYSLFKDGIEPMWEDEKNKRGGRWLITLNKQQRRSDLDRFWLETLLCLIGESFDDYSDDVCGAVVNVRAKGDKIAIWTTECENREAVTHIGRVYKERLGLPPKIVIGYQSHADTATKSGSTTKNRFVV

Consider `Cc1cc(-c2cc(Cl)ccc2OCCn2c(C)nc3cc(C(F)(F)F)c(-c4ccnc(C)c4C)c(C#N)c3c2=O)c2scc(C(=O)O)c2n1` [compound 686], for which the IC50 is under 50 nM under setting [1] and 26.5 nM under setting [2]. Take `CC(=O)c1csc2c(-c3cc(Cl)ccc3C#CCn3c(C)nc4cnc(N(C)[C@H]5C[C@H]6CC[C@@H](C5)N6CC(F)F)c(C#N)c4c3=O)ccnc12` [compound 1406]: under setting [3], the IC50 is 26.6 nM. On to `COC1CN(c2c(C(F)(F)F)cc3nc(C)n(CCOc4ccc(Cl)cc4-c4cc(C)nc5c(C(=O)O)csc45)c(=O)c3c2C#N)C1` [compound 1009], for which the IC50 is, setting by setting: under setting [1], under 50 nM; under setting [2], 6.23 nM. As for `Cc1cc(-c2cc(Cl)ccc2OCCn2c(C)nc3cnc(N4C[C@H]5C[C@@H](C4)N5C)c(C#N)c3c2=O)c2sc(C)c(C(=O)O)c2n1` [compound 1202], the IC50 is under 50 nM under setting [1] and 19.7 nM under setting [3]. With `Cc1nc2cnc(N3CC4(CC4)N(C)C4(CC4)C3)c(C#N)c2c(=O)n1CCOc1ccc(Cl)cc1-c1ccnc2c(C(=O)O)csc12` [compound 1363], the IC50 under setting [3] was 42.9 nM.

With `COC(=O)c1csc2c(-c3cc(Cl)ccc3OCCn3c(C)nc4cc(C(F)(F)F)c(CN(C)C)c(C#N)c4c3=O)ccnc12` [compound 1907], the IC50 under setting [3] was 405 nM. On the same count and under the same terms, the result for `Cc1nc2cnc(N3CCN4CC(F)(F)CC4C3)c(C#N)c2c(=O)n1CCOc1ccc(Cl)cc1-c1ccnc2c(C(=O)O)csc12` (centres unmarked) [compound 1311] reads 13.3 nM. For the compound `Cc1cc(-c2cc(Cl)ccc2OCCn2c(C)nc3cnc(CCF)c(C#N)c3c2=O)c2scc(C(=O)O)c2n1` [compound 1064], the IC50 is under 50 nM under setting [1] and 16.2 nM under setting [2]. For the compound `Cc1nc2cnc(N3CCC(N4CC(F)C4)CC3)c(C#N)c2c(=O)n1CC#Cc1ccc(Cl)cc1-c1ccnc2c(C(=O)O)csc12` [compound 1564], the IC50 under setting [3] is 10.6 nM. On to `Cc1cc(-c2cc(Cl)ccc2OCCn2c(C)nc3cnc(N4CC(OC(F)(F)F)C4)c(C#N)c3c2=O)c2scc(C(=O)O)c2n1` [compound 1042], for which the IC50 by setting is: under setting [1], under 50 nM; under setting [2], 26.5 nM. As for `Cc1cc(C)nc(-c2c(C(F)(F)F)cc3nc(C)n(CCOc4ccc(Cl)cc4-c4cc(C)nc5c(C(=O)O)csc45)c(=O)c3c2C#N)c1` [compound 905], the IC50 reads like this: under setting [1], under 50 nM; under setting [2], 9.38 nM. For `CCc1cc(-c2cc(Cl)ccc2OCCn2c(C)nc3cc(C(F)(F)F)c(N4CC5(C4)CN(C4CC4)C5)c(C#N)c3c2=O)c2scc(C(=O)NS(C)(=O)=O)c2n1` [compound 1932], the IC50 under setting [3] is 8.4 nM. Still for that read-out and setting: the result for `Cc1nc(N2CCN(CC(F)F)CC2)c(C#N)c2c(=O)n(CCOc3ccc(Cl)cc3-c3ccnc4c(C(=O)O)csc34)c(C)nc12` [compound 1274] reads 40.2 nM; that for `Cc1nc2cnc(N3CC[N+](CCO)(C(F)F)CC3)c(C#N)c2c(=O)n1CC#Cc1ccc(Cl)cc1-c1ccnc2c(C(=O)O)csc12` [compound 1644], 14.5 nM; that for `Cc1nc2cnc(N3CCN(CCF)C4(CC4)C3)c(C#N)c2c(=O)n1CCOc1ccc(Cl)cc1-c1ccnc2c(C(=O)O)csc12` [compound 1338], 9.5 nM. The same measure, in the same setting: the result for `Cc1cc(-c2cc(Cl)ccc2OCCn2c(C)nc3cc(C(F)F)c(-c4cncc(F)c4)c(C#N)c3c2=O)c2scc(C(=O)O)c2n1` [compound 1387] reads 22.8 nM. Consider `CCc1cc(-c2cc(Cl)ccc2OCCn2c(C)nc3cnc(N4CCN(C)CC4)c(C#N)c3c2=O)c2scc(C(=O)O)c2n1` [compound 1086], for which the IC50 by setting is: under setting [1], under 50 nM; under setting [2], 38.4 nM. Consider `COC(=O)c1csc2c(-c3cc(Cl)ccc3OCCn3c(C)nc4cc(C(F)(F)F)c(N5CCN(C6CC6)CC5)c(C#N)c4c3=O)ccnc12` [compound 1206], for which the IC50 under setting [1] is under 50 nM and the IC50 under setting [3] is 32.5 nM. Take `CSC1CN(c2c(Cl)cc3nc(C)n(CCOc4ccc(Cl)cc4-c4cc(C)nc5c(C(=O)O)csc45)c(=O)c3c2C#N)C1` [compound 704]: the IC50 by setting is: under setting [1], 50 to 1000 nM; under setting [2], 89 nM. The corresponding values for `Cc1cc(C(=O)O)c(C#N)c(-c2cc(Cl)ccc2OCCn2cnc3cnc(C#N)cc3c2=O)n1` [compound 116] are over 1000 nM and over 3000 nM. As to `Cc1cc(-c2cc(Cl)ccc2OCCn2c(C)nc3cc(C(F)(F)F)c(CN4CCS(=O)(=O)CC4)c(C#N)c3c2=O)c2scc(C(=O)O)c2n1` [compound 1377], under setting [3], the IC50 is 44 nM. `Cc1nc2cc(C(F)(F)F)cc(C#N)c2c(=O)n1C/C=C/c1ccc(Cl)cc1-c1cccc(C(=O)O)c1` [compound 145]: the IC50 was 50 to 1000 nM under setting [1] and 95.9 nM under setting [2]. Regarding `Cc1nc2cnc(CN)cc2c(=O)n1CCOc1ccc(Cl)cc1-c1cccc(C(=O)O)c1` [compound 1998], the IC50 under setting [3] was 409 nM. Consider `Cc1cc(-c2cc(Cl)ccc2OCCn2c(C)nc3cn(C)c(=O)c(C#N)c3c2=O)c2scc(C(=O)O)c2n1` [compound 1005], for which the IC50 reads like this: under setting [1], under 50 nM; under setting [2], 33.4 nM.

For `Cc1nc2cnc(N3CCN(C4(CCC(F)(F)F)CC4)CC3)c(C#N)c2c(=O)n1CCOc1ccc(Cl)cc1-c1ccnc2c(C(=O)O)csc12` [compound 1401], the IC50 under setting [3] was 12.7 nM.

As for `Cc1nc2cnc(N(C)C3CCN(CC(C)(F)F)CC3)c(C#N)c2c(=O)n1CC#Cc1ccc(Cl)cc1-c1ccnc2c(C(=O)NS(=O)(=O)c3ccccn3)csc12` [compound 1146], the IC50 runs as follows: under setting [1], under 50 nM; under setting [2], 14.4 nM. As for `Cc1cc(-c2cc(Cl)ccc2OCCn2c(=O)c3c(C#N)cc(C(F)(F)F)cc3n(C)c2=O)c2scc(C(=O)O)c2n1` [compound 1975], under setting [3], the IC50 was 109 nM. The same measure, in the same setting: the result for `Cc1nc2cnc(C#CCN(C)CC(F)(F)F)c(C#N)c2c(=O)n1CCOc1ccc(Cl)cc1-c1ccnc2c(C(=O)O)csc12` [compound 1327] reads 19.3 nM. As for `CC(COc1ccc(Cl)cc1-c1cccc(C(=O)O)c1)n1cnc2cnc(C#N)cc2c1=O` (centres unmarked) [compound 129], the IC50 runs as follows: under setting [1], over 1000 nM; under setting [2], 3100 nM. The like results for `Cc1cc(-c2cc(Cl)ccc2OCCn2c(C)nc3cnc(OCc4ccccn4)c(C#N)c3c2=O)c2scc(C(=O)O)c2n1` [compound 1039] were, in that order, under 50 nM and 21.7 nM.

Regarding `Cc1nc2cnc(N(C)C3CCN(CC(F)F)CC3)c(C#N)c2c(=O)n1CC#Cc1ccc(Cl)cc1-c1ccnc2c(C(N)=O)csc12` [compound 1281], the IC50 under setting [3] is 117 nM.

Consider `Cc1nc2cc(C(F)(F)F)c(Cl)c(C#N)c2c(=O)n1CCOc1ccc(Cl)cc1-c1ccnc2c(C(=O)NS(C)(=O)=O)csc12` [compound 519], for which the IC50 is under 50 nM under setting [1] and 37.8 nM under setting [2]. The corresponding values for `Cc1cc(-c2cc(Cl)ccc2C#CCn2c(C)nc3cc(C(F)(F)F)c(CN(C)C)c(C#N)c3c2=O)c2scc(C(=O)O)c2n1` [compound 562] are under 50 nM and 8.78 nM. Regarding `Cc1nc2cnc(N(C)[C@H]3CC[C@H](N(C)CCF)CC3)c(C#N)c2c(=O)n1CC#Cc1ccc(Cl)cc1-c1ccnc2c(C(=O)O)csc12` [compound 1229], the IC50 is, setting by setting: under setting [1], under 50 nM; under setting [3], 10.7 nM. As for `Cc1nc2cc(C(F)(F)F)c(OCC(F)(F)F)c(C#N)c2c(=O)n1CCOc1ccc(Cl)cc1-c1ccnc2c(C(=O)O)csc12` [compound 1153], the IC50 is, setting by setting: under setting [1], under 50 nM; under setting [2], 38 nM. For the compound `CCc1cc(-c2cc(Cl)ccc2OCCn2c(C)nc3cc(C(F)(F)F)c(-c4ccncc4)c(C#N)c3c2=O)c2scc(C(=O)O)c2n1` [compound 1012], the IC50 reads like this: under setting [1], under 50 nM; under setting [2], 8.94 nM. For the compound `Cc1cc(-c2c(C(F)(F)F)cc3nc(C)n(CCOc4ccc(Cl)cc4-c4cc(C)nc5c(C(=O)O)csc45)c(=O)c3c2C#N)ccn1` [compound 341], the IC50 is, setting by setting: under setting [1], under 50 nM; under setting [2], 45 nM. `Cc1nc2cnc(N(C)C3CCN(CC4CC(OC(F)F)C4)CC3)c(C#N)c2c(=O)n1CC#Cc1ccc(Cl)cc1-c1ccnc2c(C(=O)O)csc12` (centres unmarked) [compound 1189]: the IC50 runs as follows: under setting [1], under 50 nM; under setting [3], 13.4 nM. For the compound `O=C(O)c1cccc(-c2cc(Cl)ccc2OCCc2cnc(C(F)F)c3nc(Nc4ccccc4)[nH]c(=O)c23)c1` [compound 173], the IC50 under setting [1] lay within 50 to 1000 nM and the IC50 under setting [2] is 141 nM. The corresponding values for `Cc1c(C(F)(F)F)cc2nc(C)n(CCOc3ccc(Cl)cc3-c3cn(C)c(=O)c4c(C(=O)O)csc34)c(=O)c2c1C#N` [compound 753] are under 50 nM and 13.8 nM. The like results for `CCc1cc(-c2cc(Cl)ccc2OCCn2c(C)nc3cc(C(F)(F)F)c(-c4ccn(C)n4)c(C#N)c3c2=O)c2scc(C(=O)O)c2n1` [compound 1014] were, in that order, under 50 nM and 25.6 nM. The like results for `COc1cncc(-c2c(C(F)(F)F)cc3nc(C)n(CCOc4ccc(Cl)cc4-c4cc(C)nc5c(C(=O)O)csc45)c(=O)c3c2C#N)c1` [Compound 1060] were, in that order, 50 to 1000 nM and 50.9 nM. Take `Cc1cc(-c2cc(Cl)ccc2OCCn2c(C)nc3cc(C(F)(F)F)c(CC4CCNCC4)c(C#N)c3c2=O)c2scc(C(=O)O)c2n1` [compound 714]: the IC50 under setting [1] was under 50 nM and the IC50 under setting [2] was 47.2 nM. The corresponding values for `Cc1nc2cc(C(F)(F)F)cc(C#N)c2c(=O)n1CCOc1ccc(Cl)cc1-c1ccnc2cc(C(=O)O)sc12` [compound 199] are 50 to 1000 nM and 143 nM. In the case of `Cc1nc2cnc(N(C)[C@H]3CC[C@H](N4CC(F)(F)C4)CC3)c(C#N)c2c(=O)n1CC#Cc1ccc(Cl)cc1-c1ccnc2c(C(=O)O)csc12` [compound 1099], the IC50 under setting [1] was under 50 nM. As for `Cc1cc(-c2cc(Cl)ccc2OCCn2c(C)nc3cc(C(F)(F)F)c(N4CC5(CN(C)C5)C4)c(C#N)c3c2=O)c2sc(C)c(C(=O)O)c2n1` [compound 1420], the IC50 under setting [3] was 6.33 nM.
